According to patent US10457707B2, “Substituted urea depsipeptide analogs as activators of the CLPP endopeptidase” (priority 2015, dated 2019):
In brackets after ≈: the same amount, converted by molar mass. Like-named read-outs stand apart in the source and are kept apart here.

Assays:
Assay type in all cases: cell-based
[1] = system: Staphylococcus aureus, USA 300; experiment: Minimal inhibitory concentration assay; conditions: USA300, read-out: Minimal Inhibitory Concentrations S. aureus USA 300
Procedure, shortened: (§1)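 Compound is serially diluted two-fold in the appropriate broth, and bacterial inoculum at about 10^5 cfu/mL is added so the highest final concentration is 200 μM. Plates stay overnight at 37 °C under aerobic conditions before growth is scored by eye.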

[2] = system: Staphylococcus aureus, USA 300 wherein ClpP is inactivated; experiment: Minimal inhibitory concentration assay
Procedure, shortened: as §1

E. coli K12ΔtolC = experiment: Minimal inhibitory concentration assay (microbroth dilution)
[3] = system: Streptococcus pneumoniae, DAW27; experiment: as above; conditions: DAW27, read-out: Minimal Inhibitory Concentrations S. pneumoniae DAW27
Procedure, shortened: as §1

[4] = system: Staphylococcus aureus, ATCC 29213; experiment: as above; conditions: ATCC29213, read-out: Minimal Inhibitory Concentrations S. aureus ATCC 29213
Procedure, shortened: as §1

[5] = system: Enterococcus faecalis, ATCC 33186; experiment: as above
Procedure, shortened: as §1

[6] = system: Bacillus subtilis, ATCC 23857; experiment: as above
Procedure, shortened: as §1

[7] = system: Staphylococcus aureus, NRS70; experiment: as above
Procedure, shortened: as §1

[8] = system: Streptococcus pyogenes, ATCC 700294; experiment: as above
Procedure, shortened: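 Plates with two-fold compound dilution series in broth were incubated overnight, aerobically, at 37° C, following CLSI microdilution guidance.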

[9] = system: Vero (kidney epithelial cells; ATCC CCL-81); experiment: Cytotoxicity assay (CellTiter-Glo cell viability, 72 hours); conditions: Vero cells, 72 hours, growth inhibition; read-out: Cytotoxicity IC50
Procedure, shortened: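 Viability measured by CellTiter-Glo luminescence after 72-hour compound exposure (serial dilutions, DMSO control) of Vero monolayers seeded at 5000 cells/well in 10% FBS DMEM. IC50 values are the range of two biologically independent experiments, each run in duplicate.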

[10] = Enterococcus faecalis, ATCC33186; read-out: Minimal Inhibitory Concentrations E. faecalis ATCC 33186
[11] = Bacillus subtilis, ATCC23857; read-out: Minimal Inhibitory Concentrations B. subtilis ATCC 23857
[12] = Staphylococcus aureus, NRS70; read-out: Minimal Inhibitory Concentrations S. aureus NRS70
[13] = Streptococcus pyogenes, ATCC700294; read-out: Minimal Inhibitory Concentrations S. pyogenes ATCC 700294
[14] = Streptococcus pyogenes, ATCC700294, read-out: Minimal Inhibitory Concentrations S. pyogenes ATCC 700294
[15] = Enterococcus faecalis, ATCC33186, read-out: Minimal Inhibitory Concentrations E. faecalis ATCC 33186
[16] = Bacillus subtilis, ATCC23857, read-out: Minimal Inhibitory Concentrations B. subtilis ATCC 23857
[17] = Staphylococcus aureus, NRS70, read-out: Minimal Inhibitory Concentrations S. aureus NRS70

SMILES	MIC [1] [µM]	Minimal Inhibitory Concentrations S. aureus USA 300 ΔClpP [2] [µM]	Minimal Inhibitory Concentrations E. coli K12ΔtolC (E. coli K12ΔtolC) [µM]	MIC [3] [µM]	MIC [4] [µM]	MIC [5, 10] [µM]	MIC [6, 11] [µM]	MIC [7, 12] [µM]	MIC [8, 13] [µM]	MIC [8, 14] [µM]	MIC [5, 15] [µM]	MIC [6, 16] [µM]	MIC [7, 17] [µM]	IC50 [9] [µM]	MIC ([8]; S. pyogenes ATCC 700294; read-out: Minimal Inhibitory Concentrations S. pyogenes ATCC 700294) [µM]	MIC ([7]; S. aureus NRS70; read-out: Minimal Inhibitory Concentrations S. aureus NRS70) [µM]
O=C(N[C@H](CO)[C@H](O)c1ccc([N+](=O)[O-])cc1)C(Cl)Cl [Chloroamphenicol, chloramphenicol, reference compound]	3.1 (≈ 1 µg/mL)	6.3	0.78	0.78 (≈ 0.252 µg/mL)	3.13 (≈ 1.01 µg/mL)	0.39 (≈ 0.126 µg/mL)	3.1 (≈ 1 µg/mL)	3.1 (≈ 1 µg/mL)								
CN(C)[C@@H]1C(O)=C(C(N)=O)C(=O)[C@@]2(O)C(O)=C3C(=O)c4c(O)cccc4[C@@](C)(O)[C@H]3C[C@@H]12 [Tetracycline, tetracycline, reference compound]	0.1 (≈ 0.0444 µg/mL)			0.1 (≈ 0.0444 µg/mL)	0.1 (≈ 0.0444 µg/mL)	0.05 (≈ 0.0222 µg/mL)	1.6 (≈ 0.711 µg/mL)	0.05 (≈ 0.0222 µg/mL)	0.1 (≈ 0.0444 µg/mL)							
C[C@@H]1C[C@H]2C(=O)OC[C@H](NC(=O)[C@H](Cc3ccccc3)NC(=O)Nc3ccccc3)C(=O)N3CCC[C@H]3C(=O)N3CCCC[C@H]3C(=O)N[C@@H](C)C(=O)N2C1 [Compound 1, (S)—N-((2R,6S,8aS,14aS,20S,23aS)-2,6-dimethyl-5,8,14,19,23-pentaoxooctadecahydro-1H,5H,14H,19H-pyrido[2,1-i]dipyrrolo[2,1-c:2′,1′-l][1]oxa[4,7,10,13]tetraazacyclohexadecin-20-yl)-3-phenyl-2-(3-phenylureido)propanamide]			200	0.78 (≈ 0.58 µg/mL)	6.25 (≈ 4.65 µg/mL)					1.56 (≈ 1.16 µg/mL)	3.13 (≈ 2.33 µg/mL)	1.56 (≈ 1.16 µg/mL)	6.25 (≈ 4.65 µg/mL)	> 100		
CCc1ccc(NC(=O)N[C@@H](Cc2ccccc2)C(=O)N[C@H]2COC(=O)[C@@H]3C[C@@H](C)CN3C(=O)[C@H](C)NC(=O)[C@@H]3CCCCN3C(=O)[C@@H]3CCCN3C2=O)cc1 [Compound 4, (S)—N-((2R,6S,8aS,14aS,20S,23aS)-2,6-dimethyl-5,8,14,19,23-pentaoxooctadecahydro-1H,5H,14H,19H-pyrido[2,1-i]dipyrrolo[2,1-c:2′,1′-l][1]oxa[4,7,10,13]tetraazacyclohexadecin-20-yl)-2-(3-(4-ethylphenyl)ureido)-3-phenylpropanamide]			25	0.04 (≈ 0.0309 µg/mL)	0.78 (≈ 0.602 µg/mL)	0.1 (≈ 0.0772 µg/mL)	0.2 (≈ 0.154 µg/mL)	0.39 (≈ 0.301 µg/mL)	0.2 (≈ 0.154 µg/mL)							
CCc1ccc(NC(=O)N[C@@H](Cc2cc(F)cc(F)c2)C(=O)N[C@H]2COC(=O)[C@@H]3C[C@@H](C)CN3C(=O)[C@H](C)NC(=O)[C@@H]3CCCCN3C(=O)[C@@H]3CCCN3C2=O)cc1 [Compound 14, (S)-3-(3,5-difluorophenyl)-N-((2R,6S,8aS,14aS,20S,23aS)-2,6-dimethyl-5,8,14,19,23-pentaoxooctadecahydro-1H,5H,14H,19H-pyrido[2,1-i]dipyrrolo[2,1-c:2′,1′-l][1]oxa[4,7,10,13]tetraazacyclohexadecin-20-yl)-2-(3-(4-ethylphenyl)ureido)propanamide]				0.04 (≈ 0.0323 µg/mL)	0.1 (≈ 0.0808 µg/mL)	0.04 (≈ 0.0323 µg/mL)	0.08 (≈ 0.0646 µg/mL)	0.08 (≈ 0.0646 µg/mL)	0.8 (≈ 0.646 µg/mL)							
C[C@@H]1C[C@H]2C(=O)OC[C@H](NC(=O)[C@H](Cc3cc(F)cc(F)c3)NC(=O)Nc3ccc(OC(F)(F)F)cc3)C(=O)N3CCC[C@H]3C(=O)N3CCCC[C@H]3C(=O)N[C@@H](C)C(=O)N2C1 [Compound 13, (S)-3-(3,5-difluorophenyl)-N-((2R,6S,8aS,14aS,20S,23aS)-2,6-dimethyl-5,8,14,19,23-pentaoxooctadecahydro-1H,5H,14H,19H-pyrido[2,1-i]dipyrrolo[2,1-c:2′,1′-l][1]oxa[4,7,10,13]tetraazacyclohexadecin-20-yl)-2-(3-(4-(trifluoromethoxy)phenyl)ureido)propanamide]				0.04 (≈ 0.0346 µg/mL)	0.05 (≈ 0.0432 µg/mL)	0.04 (≈ 0.0346 µg/mL)	0.08 (≈ 0.0691 µg/mL)	0.8 (≈ 0.691 µg/mL)	0.15 (≈ 0.13 µg/mL)							
C[C@@H]1C[C@H]2C(=O)OC[C@H](NC(=O)[C@H](Cc3ccccc3)NC(=O)Nc3ccc4c(c3)CCN4C)C(=O)N3CCC[C@H]3C(=O)N3CCCC[C@H]3C(=O)N[C@@H](C)C(=O)N2C1 [Compound 11, (S)—N-((2R,6S,8aS,14aS,20S,23aS)-2,6-dimethyl-5,8,14,19,23-pentaoxooctadecahydro-1H,5H,14H,19H-pyrido[2,1-i]dipyrrolo[2,1-c:2′,1′-l][1]oxa[4,7,10,13]tetraazacyclohexadecin-20-yl)-2-(3-(1-methylindolin-5-yl)ureido)-3-phenylpropanamide]				0.3 (≈ 0.24 µg/mL)	2.5 (≈ 2 µg/mL)					0.6 (≈ 0.479 µg/mL)	0.6 (≈ 0.479 µg/mL)	1.25 (≈ 0.999 µg/mL)	1.25 (≈ 0.999 µg/mL)	76 ± 10.6		
CCc1cccc(NC(=O)N[C@@H](Cc2ccccc2)C(=O)N[C@H]2COC(=O)[C@@H]3C[C@@H](C)CN3C(=O)[C@H](C)NC(=O)[C@@H]3CCCCN3C(=O)[C@@H]3CCCN3C2=O)c1 [Compound 10, (S)—N-((2R,6S,8aS,14aS,20S,23aS)-2,6-dimethyl-5,8,14,19,23-pentaoxooctadecahydro-1H,5H,14H,19H-pyrido[2,1-i]dipyrrolo[2,1-c:2′,1′-l][1]oxa[4,7,10,13]tetraazacyclohexadecin-20-yl)-2-(3-(3-ethylphenyl)ureido)-3-phenylpropanamide]				0.3 (≈ 0.232 µg/mL)	0.6 (≈ 0.463 µg/mL)	0.3 (≈ 0.232 µg/mL)	0.6 (≈ 0.463 µg/mL)	0.6 (≈ 0.463 µg/mL)	0.6 (≈ 0.463 µg/mL)							
COc1cccc(NC(=O)N[C@@H](Cc2ccccc2)C(=O)N[C@H]2COC(=O)[C@@H]3C[C@@H](C)CN3C(=O)[C@H](C)NC(=O)[C@@H]3CCCCN3C(=O)[C@@H]3CCCN3C2=O)c1 [Compound 8, (S)—N-((2R,6S,8aS,14aS,20S,23aS)-2,6-dimethyl-5,8,14,19,23-pentaoxooctadecahydro-1H,5H,14H,19H-pyrido[2,1-i]dipyrrolo[2,1-c:2′,1′-l][1]oxa[4,7,10,13]tetraazacyclohexadecin-20-yl)-2-(3-(3-methoxyphenyl)ureido)-3-phenylpropanamide]			200	0.39 (≈ 0.302 µg/mL)	3.13 (≈ 2.42 µg/mL)	1.56 (≈ 1.21 µg/mL)	3.13 (≈ 2.42 µg/mL)	3.13 (≈ 2.42 µg/mL)	0.78 (≈ 0.604 µg/mL)							
NC[C@H]1O[C@H](O[C@H]2[C@H](O)[C@@H](O[C@H]3O[C@H](CO)[C@@H](O)[C@H](N)[C@H]3O)[C@H](N)C[C@@H]2N)[C@H](O)[C@@H](O)[C@@H]1O [Kanamycin, kanamycin, reference compound]			0.4	25 (≈ 12.1 µg/mL)	1.56 (≈ 0.756 µg/mL)	25 (≈ 12.1 µg/mL)	0.1 (≈ 0.0485 µg/mL)	50 (≈ 24.2 µg/mL)	12.5 (≈ 6.06 µg/mL)							
C[C@@H]1C[C@H]2C(=O)OC[C@H](NC(=O)[C@H](Cc3ccccc3)NC(=O)Nc3ccc4ccn(C)c4c3)C(=O)N3CCC[C@H]3C(=O)N3CCCC[C@H]3C(=O)N[C@@H](C)C(=O)N2C1 [Compound 12, (S)—N-((2R,6S,8aS,14aS,20S,23aS)-2,6-dimethyl-5,8,14,19,23-pentaoxooctadecahydro-1H,5H,14H,19H-pyrido[2,1-i]dipyrrolo[2,1-c:2′,1′-l][1]oxa[4,7,10,13]tetraazacyclohexadecin-20-yl)-2-(3-(1-methyl-1H-indol-6-yl)ureido)-3-phenylpropanamide]				0.3 (≈ 0.239 µg/mL)	2.5 (≈ 1.99 µg/mL)					0.6 (≈ 0.478 µg/mL)	1.25 (≈ 0.996 µg/mL)	2.5 (≈ 1.99 µg/mL)	2.5 (≈ 1.99 µg/mL)	90 ± 7.6		
C[C@@H]1C[C@H]2C(=O)OC[C@H](NC(=O)[C@H](Cc3ccccc3)NC(=O)Nc3ccc(OC(F)(F)F)cc3)C(=O)N3CCC[C@H]3C(=O)N3CCCC[C@H]3C(=O)N[C@@H](C)C(=O)N2C1 [Compound 2, (S)—N-((2R,6S,8aS,14aS,20S,23aS)-2,6-dimethyl-5,8,14,19,23-pentaoxooctadecahydro-1H,5H,14H,19H-pyrido[2,1-i]dipyrrolo[2,1-c:2′,1′-l][1]oxa[4,7,10,13]tetraazacyclohexadecin-20-yl)-3-phenyl-2-(3-(4-(trifluoromethoxy)phenyl)ureido)propanamide]			12.5	0.02 (≈ 0.0166 µg/mL)		0.02 (≈ 0.0166 µg/mL)	0.2 (≈ 0.166 µg/mL)								0.10 (≈ 0.0828 µg/mL)	0.20 (≈ 0.166 µg/mL)
